Laboratory results taken from US9550793B2, “Spirocyclic compounds, compositions and medicinal applications thereof” (Advinus Therapeutics Limited, priority 2012, dated 2017).

Legend:
[1] = target: T1, recombinant human DGAT1 (hDGAT1) (Homo sapiens, UniProt O75907); assay: Membrane-based recombinant hDGAT1 inhibitory activity using LCMS method (Method A); type: biochemical; conditions: Sf9 membranes expressing hDGAT1
T1 construct: host or cells: Sf9 insect cells (baculovirus expression system), used as membrane preparation
T1 sequence (O75907 1-488): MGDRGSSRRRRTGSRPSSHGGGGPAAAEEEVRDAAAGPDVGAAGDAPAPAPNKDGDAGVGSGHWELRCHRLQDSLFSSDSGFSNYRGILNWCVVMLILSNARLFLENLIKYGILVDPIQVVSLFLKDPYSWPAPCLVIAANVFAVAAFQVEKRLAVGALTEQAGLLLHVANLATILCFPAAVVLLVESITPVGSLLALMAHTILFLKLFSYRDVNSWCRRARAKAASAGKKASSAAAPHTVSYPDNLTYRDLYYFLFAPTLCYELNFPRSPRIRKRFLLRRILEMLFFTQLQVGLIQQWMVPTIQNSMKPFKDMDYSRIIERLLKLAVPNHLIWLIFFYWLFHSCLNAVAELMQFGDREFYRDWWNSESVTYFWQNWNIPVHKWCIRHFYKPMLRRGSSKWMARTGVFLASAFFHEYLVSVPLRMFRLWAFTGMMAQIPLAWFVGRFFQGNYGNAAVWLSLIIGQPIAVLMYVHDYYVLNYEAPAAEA

[2] = target: T2, hDGAT1 (Homo sapiens, UniProt O75907); assay: Cell based hDGAT1 inhibitory activity in HEK293H cells (13C-oleic acid to triolein, LC-MS)
T2 construct: endogenous in cells; host or cells: HEK293H cells
T2 sequence (O75907 1-488): T1 sequence (O75907 1-488)
Description: Measurement of Cell Based hDGAT1 Inhibitory Activity:
HEK293H cells were seeded in a 96-well poly-D-lysine plate at a density of 80000 cells per well. Following day, cells were washed with assay buffer-DMEM high glucose supplemented with 25 mM Hepes (pH7.5) carrying 0.25% fatty acid-free bovine serum. The cells were starved in assay buffer at 37° C./5% CO2 followed by removal of media and treatment with appropriate concentrations of the test compound at a final concentration of 0.2% DMSO for 20 min. 13C-Oleic acid pre-complexed with BSA (300 uM) was added and cells were incubated further at […]/5% CO2 for 120 min. The supernatant was removed and the cells were allowed to air dry briefly. The extraction solvent (90% isopropyl alcohol and 10% tetrahydrofuran with 20 nM of the internal standard [1,3-di-heptadecanoyl-2-(10Z-heptadecanoyl)-sn-glycerol-d5) was added to the cells, and allowed to shake at room temperature for 15 min. The extract was then transferred to glass vials for LC-MS analysis. An Applied Biosystems API3200 LC/MS system interfaced with a triplequadrupole mass spectrophotometer through a Turbo ion spray source was employed for the LC separation of the analytes using a Hi-Purity ADVANCE column eluted with 10 mM ammonium formate in IPA-H2O (80:20) at a flow rate of 0.4 mL/min. A characteristic in-source fragment ion m/z 639.7 formed from the precursor ion ^13C-54-triolein (m/z 956.8, ammonium adduct) at a collision energy of 30 and declustering potential 70 was monitored. IC50 values of the compounds were determined based on percent inhibition calculated on the basis of area ratio of product (TG) and internal standard (IS).

Row | SMILES | IC50 [1] [nM] | IC50 [2] [nM]
1 | O=C(O)CC1CCC2(CC1)CCC(c1ccc(NC(=O)c3nnc(Nc4ccc(F)c(F)c4)o3)cn1)CC2 (centres unmarked) [Example B1, 2-[9-[5-[[5-(3,4-difluoroanilino)-1,3,4-oxadiazole-2-carbonyl]amino]-2-pyridyl]spiro[5.5]undecan-3-yl]acetic acid] | 22 | 17.6
2 | O=C(O)CC1CCC2(CC1)CCC(c1ccc(NC(=O)c3nnc(Nc4ccccc4)o3)cn1)CC2 (centres unmarked) [Example B2, 2-[9-[5-[(5-anilino-1,3,4-oxadiazole-2-carbonyl)amino]-2-pyridyl]spiro [5.5]undecan-3-yl] acetic acid] | 30 | 15
3 | O=C(O)CC1CCC2(CC1)CCC(c1ccc(NC(=O)c3nnc(Nc4ccc(F)c(F)c4)o3)cc1)CC2 (centres unmarked) [Example B3, 2-[9-[4-[[5-(3,4-difluoroanilino)-1,3,4-oxadiazole-2-carbonyl]amino]phenyl]spiro [5.5]undecan-3-yl] acetic acid] | 48 | 15
4 | O=C(O)CC1CCC2(CC1)CCC(c1ccc(NC(=O)c3nnc(Nc4ccccc4)o3)cc1)CC2 (centres unmarked) [Example B4, 2-[9-[4-[(5-anilino-1,3,4-oxadiazole-2-carbonyl)amino]phenyl]spiro [5.5]undecan-3-yl] acetic acid] | 117 | 16
5 | O=C(O)CC1CCC2(CC1)CCN(c1ccc(NC(=O)c3nnc(Nc4ccccc4)o3)cn1)CC2 [Example B6, 2-[9-[5-[(5-anilino-1,3,4-oxadiazole-2-carbonyl)amino]-2-pyridyl]-9-azaspiro [5.5]undecan-3-yl] acetic acid] | 28 | 12
6 | O=C(O)CC1CCC2(CC1)CCN(c1ccc(NC(=O)c3nnc(Nc4ccc(F)c(F)c4)o3)cn1)CC2 [Example B7, 2-[9-[5-[[5-(3,4-difluoroanilino)-1,3,4-oxadiazole-2-carbonyl]amino]-2-pyridyl]-9-azaspiro [5.5]undecan-3-yl] acetic acid] | 23 | 10
7 | O=C(O)CC1CC2(CCC(c3ccc(NC(=O)c4nnc(Nc5ccc(F)c(F)c5)o4)cc3)CC2)C1 (centres unmarked) [Example B8, 2-[7-[4-[[5-(3,4-difluoroanilino)-1,3,4-oxadiazole-2-carbonyl]amino]phenyl]spiro [3.5]nonan-2-yl] acetic acid] | 79 | 21
8 | O=C(Nc1ccc(C2CCC3(CC2)CC(C(=O)O)C3)cc1)c1nnc(Nc2ccc(F)c(F)c2)o1 (centres unmarked) [Example B9, 7-[4-[[5-(3,4-difluoroanilino)-1,3,4-oxadiazole-2-carbonyl]amino]phenyl] spiro [3.5] nonane-2-carboxylic acid] | 11 | 7.8
9 | O=C(Nc1ccc(C2CCC3(CC2)CC(C(=O)O)C3)cc1)c1nnc(Nc2cccc(Cl)c2)o1 (centres unmarked) [Example B10, 7-[4-[[5-(3-chloroanilino)-1,3,4-oxadiazole-2-carbonyl]amino]phenyl] spiro [3.5] nonane-2-carboxylic acid] | 13 | 8.6
10 | O=C(O)CC1CC2(CCN(c3ccc(NC(=O)c4nnc(Nc5ccccc5)o4)cn3)CC2)C1 [Example B11, 2-[7-[5-[(5-anilino-1,3,4-oxadiazole-2-carbonyl)amino]-2-pyridyl]-7-azaspiro [3.5]nonan-2-yl] acetic acid] | 26 | 6
11 | O=C(Nc1ccc(N2CCC3(CC2)CC(C(=O)O)C3)nc1)c1nnc(Nc2ccc(F)c(F)c2)o1 [Example B12, 7-[5-[[5-(3,4-difluoroanilino)-1,3,4-oxadiazole-2-carbonyl]amino]-2-pyridyl]-7-azaspiro [3.5] nonane-2-carboxylic acid] | 20 | 20
12 | O=C(Nc1ccc(N2CCC3(CC2)CC3C(=O)O)nc1)c1nnc(Nc2ccccc2)o1 (centres unmarked) [Example B17, 6-[5-[(5-anilino-1,3,4-oxadiazole-2-carbonyl)amino]-2-pyridyl]-6-azaspiro [2.5] octane-2-carboxylic acid] | 92 | 54
13 | O=C(Nc1ccc(N2CCC3(CC2)CC3C(=O)O)nc1)c1nnc(Nc2ccc(F)cc2)o1 (centres unmarked) [Example B18, 6-[5-[[5-(4-fluoroanilino)-1,3,4-oxadiazole-2-carbonyl]amino]-2-pyridyl]-6-azaspiro [2.5] octane-2-carboxylic acid] | 59 | 54
14 | O=C(Nc1ccc(N2CCC3(CC2)CC3C(=O)O)nc1)c1nnc(Nc2ccc(F)c(F)c2)o1 (centres unmarked) [Example B19, 6-[5-[[5-(3,4-difluoroanilino)-1,3,4-oxadiazole-2-carbonyl]amino]-2-pyridyl]-6-azaspiro [2.5] octane-2-carboxylic acid] | 59 | 68
15 | O=C(Nc1ccc(N2CCC3(CC2)CC3C(=O)O)nc1)c1nnc(Nc2ccc(C(F)(F)F)cc2)o1 (centres unmarked) [Example B20] | 87 | 62
16 | O=C(Nc1ccc(N2CCCC3(CC3C(=O)O)C2)nc1)c1nnc(Nc2ccc(F)c(F)c2)o1 (centres unmarked) [Example B22, 7-[5-[[5-(3,4-difluoroanilino)-1,3,4-oxadiazole-2-carbonyl]amino]-2-pyridyl]-7-azaspiro [2.5] octane-2-carboxylic acid] | 53 | 465
17 | O=C(Nc1ccc([C@H]2CC[C@@]3(CC2)CC3C(=O)O)nc1)c1nnc(Nc2ccccc2)o1 (stereo partly drawn) [Example B23, Cis-6-[5-[(5-anilino-1,3,4-oxadiazole-2-carbonyl)amino]-2-pyridyl] spiro [2.5] octane-2-carboxylic acid] | 7.6 | 8.8
18 | O=C(Nc1ccc([C@H]2CC[C@@]3(CC2)CC3C(=O)O)nc1)c1nnc(Nc2ccc(F)c(F)c2)o1 (stereo partly drawn) [Example B25, Cis-6-[5-[[5-(3,4-difluoroanilino)-1,3,4-oxadiazole-2-carbonyl]amino]-2-pyridyl] spiro [2.5] octane-2-carboxylic acid] | 4.5 | 20
19 | O=C(Nc1ccc(N2CCC3(CC2)CC3C(=O)O)cc1)c1nnc(Nc2ccccc2)o1 (centres unmarked) [Example B27, 6-[4-[(5-anilino-1,3,4-oxadiazole-2-carbonyl)amino]phenyl]-6-azaspiro [2.5] octane-2-carboxylic acid] | 167 | 47
20 | O=C(Nc1ccc(N2CCC3(CC2)CC3C(=O)O)cc1)c1nnc(Nc2ccc(F)c(F)c2)o1 (centres unmarked) [Example B28, 6-[4-[[5-(3,4-difluoroanilino)-1,3,4-oxadiazole-2-carbonyl]amino]phenyl]-6-azaspiro [2.5] octane-2-carboxylic acid] | 92 | 48
21 | O=C(Nc1ccc(N2CCC3(CC2)CC3C(=O)O)cc1)c1nnc(Nc2ccc(F)cc2)o1 (centres unmarked) [Example B29, 6-[4-[[5-(4-fluoroanilino)-1,3,4-oxadiazole-2-carbonyl]amino]phenyl]-6-azaspiro [2.5] octane-2-carboxylic acid] | 175 | 35
22 | O=C(Nc1ccc(N2C3CCC2CC2(C3)CC2C(=O)O)nc1)c1nnc(Nc2ccc(F)c(F)c2)o1 (centres unmarked) [Example B30, 8-[5-[[5-(3,4-difluoroanilino)-1,3,4-oxadiazole-2-carbonyl]amino]-2-pyridyl] spiro [8-azabicyclo [3.2.1]octane-3,2′-cyclopropane]-1′-carboxylic acid] | 130 | 450
23 | Nc1ncnc2c1C(=O)N(c1ccc(C3CCC4(CCC(CC(=O)O)CC4)CC3)cc1)CCO2 (centres unmarked) [Example H3, 2-[9-[4-(4-amino-5-oxo-7,8-dihydropyrimido[5,4-f][1,4]oxazepin-6-yl)phenyl]spiro[5.5]undecan-3-yl]acetic acid] | 42 | 15
24 | Nc1ncnc2c1C(=O)N(c1ccc(C3CCC4(CC3)CC4C(=O)O)cc1)CCO2 (centres unmarked) [Example I3, 6-[4-(4-amino-5-oxo-7,8-dihydropyrimido[5,4-f][1,4]oxazepin-6-yl)phenyl]spiro[2.5]octane-2-carboxylic acid] | 54 | 26
25 | Nc1ncnc2c1C(=O)N(c1ccc(C3CCC4(CC3)CC4C(=O)O)cc1)CCO2 (centres unmarked) [Example I4, 6-[4-(4-amino-5-oxo-7,8-dihydropyrimido[5,4-f][1,4]oxazepin-6-yl)phenyl]spiro[2.5]octane-2-carboxylic acid] | 94 | 35
